Laboratory results as given in PubChem BioAssay (NCI).
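Dose response: 5 concentrations. Exposure: 48 h. Format: 96-well plates. Endpoint: linear interpolation; highest concentration if not reached. TGI marks complete inhibition of growth.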

Experiments:
Test in all cases: NCI tumour cell line growth inhibition, 48 h
OVCAR-8 ovarian = system: OVCAR-8 ovarian
COLO 205 colon = system: COLO 205 colon
NCI-H522 lung = system: NCI-H522 lung
K-562 leukemia = system: K-562 leukemia
RXF 393 renal = system: RXF 393 renal
MOLT-4 leukemia = system: MOLT-4 leukemia
UACC-257 melanoma = system: UACC-257 melanoma
SK-OV-3 ovarian = system: SK-OV-3 ovarian
OVCAR-5 ovarian = system: OVCAR-5 ovarian
SW-620 colon = system: SW-620 colon
A549 NSCLC = system: A549 NSCLC
786-0 renal = system: 786-0 renal
KM12 colon = system: KM12 colon
SK-MEL-5 melanoma = system: SK-MEL-5 melanoma
DU-145 prostate = system: DU-145 prostate
HCT-116 colon = system: HCT-116 colon
NCI-H226 lung = system: NCI-H226 lung
HL-60(TB) leukemia = system: HL-60(TB) leukemia
MALME-3M melanoma = system: MALME-3M melanoma
SK-MEL-2 melanoma = system: SK-MEL-2 melanoma
MDA-MB-435 = system: MDA-MB-435

CNc1ccc(C(=O)CC(O)CCC(C)C2OC(=O)CC(O)CC(=O)CC(O)CC(O)CC(O)CC(O)CC3(O)CC(O)C(C(=O)N4CCOCC4)C(CC(OC4OC(C)C(O)C(N)C4O)/C=C/C=C/C=C/C=C\C=C/C=C/C=C/C2C)O3)cc1 (stereo unspecified)
TGI (OVCAR-8 ovarian): > 100000 nM | TGI (COLO 205 colon): > 100000 nM | TGI (NCI-H522 lung): 550 nM | TGI (K-562 leukemia): > 100000 nM | TGI (RXF 393 renal): 637 nM | TGI (MOLT-4 leukemia): > 100000 nM | TGI (UACC-257 melanoma): 384 nM | TGI (SK-OV-3 ovarian): > 100000 nM | TGI (OVCAR-5 ovarian): > 100000 nM | TGI (SW-620 colon): > 100000 nM | TGI (A549 NSCLC): > 100000 nM | TGI (786-0 renal): > 100000 nM | TGI (KM12 colon): 747 nM | TGI (SK-MEL-5 melanoma): 462 nM | TGI (DU-145 prostate): 3310 nM | TGI (HCT-116 colon): > 100000 nM | TGI (NCI-H226 lung): 553 nM | TGI (HL-60(TB) leukemia): > 100000 nM | TGI (MALME-3M melanoma): 400 nM | TGI (SK-MEL-2 melanoma): 8550 nM | TGI (MDA-MB-435): 798 nM
